{"source": "patent US10111822B2", "about": "“External dermal composition for anti-ageing and method for producing the same” (Hayashibara Co., Ltd., priority 2012, dated 2018)", "key": {"[1]": {"test_system": "Microphthalmia-associated transcription factor (MITF)", "assay": "MITF and phosphorylated MITF in B16 cells (Western)", "type": "cell-based, mouse", "conditions": "2 h; for (Phosphorylated MITF)/(MITF): control 0.90; for Phosphorylated MITF / MITF: β-actin regarded as 100%; for Phosphorylated MITF: control 73; for MITF: control 81", "experimental": "Test solutions were prepared by dissolving ascorbic acid 2-glucoside (a reagent grade specimen commercialized by Hayashibara Co., Ltd., Okayama, Japan) or L-ascorbic acid (a special reagent grade specimen commercialized by Wako Pure Chemical Industries, Ltd., Tokyo, Japan) in Dulbecco's MEM medium supplemented with 10% v/v fetal calf serum and an antibiotic (abbreviated as “D-MEM medium”, hereinafter) to give a final concentration of 2.0 or 8.0 mM.\nContinuously-cultivated B16 cells in D-MEM medium were collected, resuspended in D-MEM medium, inoculated to 6-well plates in an amount of 1×10^5 cells/2 mL/well, and cultured for 24 hours. Thereafter, the culture supernatants were removed by sucking, and any of the test solutions was added to each plate in a volume of 2 mL/well, followed by culturing the cells for two hours. As a control, cells in other plates were added with only D-MEM medium in a volume of 2 mL/plate and cultured for two hours. To each plate, which had been removed its culture supernatant, an ice-chilled Dulbecco's PBS (−), commercialized by Nissui Pharmaceutical Co., Ltd., Tokyo, Japan, was added to wash cells, and the resulting cells were added with a SDS-sample buffer containing 62.5 mM Tris-HCl (pH 6.8), 2% w/v SDS, 10% w/v glycerol, 50 mM dithiothreitol (DTT), and 0.01% w/v bromophenol blue in a volume of 0.1 mL/well, and collected with a scraper. The resulting cell suspension was treated with an ultrasonicator, commercialized by Osminics Inc., Minnesota, USA, and subjected to SDS-polyacrylamide gel electrophoresis. The proteins in the gel were electrically transferred to a nitrocellulose membrane and allowed to sequentially react with a first antibody (Anti-phospho-MITF […] or Anti MITF), a secondary antibody, and LumiGLO™ in this order, followed by allowing to expose an X-ray film for detecting MITF positive bands. The bands thus detected were subjected to band strength analysis using Scion Image to determine the quantity of MITF and phosphorylated MITF. For every B16 cell culture, a 5% v/v CO2 incubator was used. Relative amounts of MITF and phosphorylated MITF and the ratio of phosphorylated MITF against MITF were determined when the level of β-actin in B16 cells upon culturing with each of the test solutions was regarded as 100%."}, "[2]": {"assay": "pH of aqueous solutions of compositions", "type": "physicochemical", "conditions": "2 g (d.s.b.) dissolved in 20 mL refined water; ratio by mass (anhydrous crystalline sodium salt):(anhydrous crystal)"}, "Involucrin": {"test_system": "Involucrin", "assay": "Expression of proliferation marker protein involucrin in NHEK cells (Western)", "type": "cell-based, human", "conditions": "5 days, control regarded as 50%", "experimental": "Normal human epidermal keratinocytes from neonatal foreskin (NHEK cells) were prepared into 2.5×10^5 cells/mL with EpiLife medium, inoculated to 12-well plates in a volume of 1 mL/well, and cultured at 37° C. for one day under a 5% v/v CO2 condition. Thereafter, each supernatant was removed, and a medium, to which ascorbic acid 2-glucoside had been added to give a final concentration of 300 or 600 μM, was added to the resulting cells in a volume of 1 mL/well, followed by culturing the cells at 37° C. for two days under a 5% v/v CO2 condition. Another cell culture system, which had been similarly cultured in a medium free of ascorbic acid 2-glucoside, was provided as a control. The cells cultured with ascorbic acid 2-glucoside were further added with a medium supplemented with the same concentration of sodium salt of ascorbic acid 2-glucoside as that in the above medium in a volume of 1 mL/well, and cultured for another three days under the same conditions. […] Each of the resulting extract was centrifuged to collect a supernatant, and a part of which was subjected to protein quantification. […]"}}}
{"molecule": "O=C1O[C@H]([C@@H](O)CO)C(O)=C1O[C@H]1O[C@H](CO)[C@@H](O)[C@H](O)[C@H]1O", "note": "[ascorbic acid 2-glucoside, 2-O-α-D-glucosyl-L-ascorbic acid]", "values": [{"measurement": "(Phosphorylated MITF)/(MITF)", "setting": "[1]; 2.0 mM", "result": 0.60}, {"measurement": "Phosphorylated MITF", "setting": "[1]; 2.0 mM", "result": 59, "unit": "%"}, {"measurement": "MITF", "setting": "[1]; 2.0 mM", "result": 99, "unit": "%"}, {"measurement": "(Phosphorylated MITF)/(MITF)", "setting": "[1]; 8.0 mM", "result": 0.36}, {"measurement": "Phosphorylated MITF", "setting": "[1]; 8.0 mM", "result": 36, "unit": "%"}, {"measurement": "MITF", "setting": "[1]; 8.0 mM", "result": 101, "unit": "%"}, {"measurement": "pH", "setting": "[2]", "result": 1.7}, {"measurement": "Relative expression level, Involucrin", "setting": "Involucrin; 300 μM, calibrated with α-Tubulin", "result": 74, "unit": "%"}, {"measurement": "Relative expression level, Involucrin", "setting": "Involucrin; 600 μM", "result": 84, "unit": "%"}]}
